# According to PubChem BioAssay AID1963977 (Molecular Pharmacology Branch, DTP, NCI, 2024):
# Test system: 624824-186-R-J3-PDC multicell spheroids, viability
# Assay: Anticancer human tumor 624824-186-R-J3-PDC patient-derived colon adenocarcinoma cell line growth inhibition [PI3K]
# Details: for IC50: curve of first compound; for viability, T/C: stronger effect = lower value
# Description: Combinatorial screen of targeted agents with the PI3K inhibitors inavolisib, alpelisib, duvelisib, and copanlisib in multi-cell type tumor spheroids
# A high-throughput screen of multi-cell type tumor spheroids was designed to identify active combinations of targeted small molecules and PI3K pathway inhibitors. Complex spheroids include a stromal component modeled by human endothelial cells (HUVEC) and fibroblasts modeled by human mesenchymal stem cells (MSCs). The concentration ranges selected for each drug and investigational agent were based upon clinically achievable concentrations if the clinical Cmax of the agent was known.
# Compounds. The drugs and investigational agents: inavolisib (NSC800729), alpelisib (NSC765974), duvelisib (NSC772469), copanlisib (NSC816437), ipatasertib (NSC767898), afuresertib (NSC778305), talazoparib (NSC767125), sapanisertib (NSC764658), selumetinib (NSC741078), tovorafenib (DAY101, NSC766906), vemurafenib (NSC761431), ravoxertinib (NSC781343), sotorasib (NSC818433), MRTX1133 (NSC 836407), abemaciclib (NSC 768073), palbociclib (NSC758247), venetoclax (NSC 766270), SY5609 (NSC837396), enzalutamide (NSC755605), and darolutamide (NSC825331), were obtained from the National Cancer Institute (NCI) Developmental Therapeutics Program Chemical Repository. The FDA-approved anticancer drug set is available from the NCI Developmental Therapeutics Program. […] The stock solutions were prepared in dimethyl sulfoxide (DMSO, Sigma-Aldrich, St. Louis, MO, cat. D2650) at 800-fold the tested concentration and stored at -70 degrees C prior to their use. All drugs and investigational agents were tested over a range starting from a high concentration at or near the clinical Cmax and decreasing in half-log increments. If the clinical Cmax for an agent had not been determined, the highest concentration tested was 10 microM.
# Cell Culture. All cells were maintained in an incubator at 37 degrees C and 5% CO2 with 95% humidity. The PDC lines were cultured according to standard operating procedures established by the NCI PDMR (https://pdmr.cancer.gov/sops/default.htm). All PDCs were thawed and cultured in Matrigel-coated flasks prepared with a working solution of 1X Ham's F-12 nutrient mix, without supplementation (Invitrogen, Waltham, MA, cat. 11765054), 100 U/mL penicillin-streptomycin (Invitrogen, cat. 15140122), and 2.5% Matrigel (Corning Inc., Corning, NY, cat. 354248) for the first three passages. The 354836-022-R-J1-PDC, 475296-252-R-J1-PDC, and 997726-040-R-J2-PDC lines were cultured in 6A media, which includes advanced DMEM/F-12 (Thermo Fisher Scientific, cat. 12634028), 10 mM HEPES (Thermo Fisher Scientific, cat. 15630080), 1X GlutaMAX supplement (Thermo Fisher Scientific, cat. 35050061), 0.1 mg/mL primocin (InvivoGen, San Diego, CA, cat. ant-pm-2), 10% defined fetal bovine serum, heat inactivated (HyClone Laboratories Inc., Logan, UT, cat. SH30070.03HI), 50% L-WRN conditioned media (ATCC, cat. CRL-3276), 1.25 mM N-Acetyl-L-cysteine (Sigma-Aldrich, cat. A9165), 10 mM nicotinamide (Sigma-Aldrich, cat. N0636), 1X B-27 supplement (Thermo Fisher Scientific, cat. 17504044), 1X N-2 supplement (Thermo Fisher Scientific, cat. 17502048), and 10 microM Y-27632 dihydrochloride (Tocris Bioscience, Bristol, United Kingdom, cat. 1254). The 624824-186-R-J2-PDC line was cultured in 6C/Colon 1B media, which includes all 6A media components plus 50 ng/mL human EGF recombinant protein (Thermo Fisher Scientific, cat. PHG0311). […]
# 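Further: spheroids exposed to agents for seven days before luminescence read.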
# 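Wherever viability, T/C is given: luminescent signal used as a stand-in for spheroid viability; percent viability relative to DMSO vehicle control wells taken as 100%.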
smiles,measurement,setting,value
Cn1ncnc1[C@H]1c2n[nH]c(=O)c3cc(F)cc(c23)N[C@@H]1c1ccc(F)cc1 + CC(Nc1ccc2c(c1)OCCn1cc(N3C(=O)OCC3C(F)F)nc1-2)C(N)=O,IC50,second compound 0.00316 µM,> 100 nM
same,IC50,second compound 0.01 µM,> 100 nM
same,IC50,second compound 0.0316 µM,> 100 nM
same,IC50,second compound 0.1 µM,> 100 nM
same,IC50,second compound 0.316 µM,> 100 nM
same,IC50,second compound 1 µM,> 100 nM
same,"viability, T/C","second compound 0.00316 µM, first compound 0.000316 µM",102%
same,"viability, T/C","second compound 0.00316 µM, first compound 0.001 µM",93.5%
same,"viability, T/C","second compound 0.00316 µM, first compound 0.00316 µM",101%
same,"viability, T/C","second compound 0.00316 µM, first compound 0.01 µM",99.7%
same,"viability, T/C","second compound 0.00316 µM, first compound 0.0316 µM",87.8%
same,"viability, T/C","second compound 0.00316 µM, first compound 0.1 µM",111%
same,"viability, T/C","second compound 0.01 µM, first compound 0.000316 µM",97.8%
same,"viability, T/C","second compound 0.01 µM, first compound 0.001 µM",93.6%
same,"viability, T/C","second compound 0.01 µM, first compound 0.00316 µM",102%
same,"viability, T/C","second compound 0.01 µM, first compound 0.01 µM",95.7%
same,"viability, T/C","second compound 0.01 µM, first compound 0.0316 µM",101%
same,"viability, T/C","second compound 0.01 µM, first compound 0.1 µM",92.1%
same,"viability, T/C","second compound 0.0316 µM, first compound 0.000316 µM",107%
same,"viability, T/C","second compound 0.0316 µM, first compound 0.001 µM",99.7%
same,"viability, T/C","second compound 0.0316 µM, first compound 0.00316 µM",97.5%
same,"viability, T/C","second compound 0.0316 µM, first compound 0.01 µM",92.8%
same,"viability, T/C","second compound 0.0316 µM, first compound 0.0316 µM",97.4%
same,"viability, T/C","second compound 0.0316 µM, first compound 0.1 µM",106%
same,"viability, T/C","second compound 0.1 µM, first compound 0.000316 µM",94.7%
same,"viability, T/C","second compound 0.1 µM, first compound 0.001 µM",105%
same,"viability, T/C","second compound 0.1 µM, first compound 0.00316 µM",100%
same,"viability, T/C","second compound 0.1 µM, first compound 0.01 µM",99.8%
same,"viability, T/C","second compound 0.1 µM, first compound 0.0316 µM",104%
same,"viability, T/C","second compound 0.1 µM, first compound 0.1 µM",106%
same,"viability, T/C","second compound 0.316 µM, first compound 0.000316 µM",93.8%
same,"viability, T/C","second compound 0.316 µM, first compound 0.001 µM",99.3%
same,"viability, T/C","second compound 0.316 µM, first compound 0.00316 µM",98.2%
same,"viability, T/C","second compound 0.316 µM, first compound 0.01 µM",91.6%
same,"viability, T/C","second compound 0.316 µM, first compound 0.0316 µM",96.7%
same,"viability, T/C","second compound 0.316 µM, first compound 0.1 µM",100%
same,"viability, T/C","second compound 1 µM, first compound 0.000316 µM",90.6%
same,"viability, T/C","second compound 1 µM, first compound 0.001 µM",90.3%
same,"viability, T/C","second compound 1 µM, first compound 0.00316 µM",94%
same,"viability, T/C","second compound 1 µM, first compound 0.01 µM",91.9%
same,"viability, T/C","second compound 1 µM, first compound 0.0316 µM",99.1%
same,"viability, T/C","second compound 1 µM, first compound 0.1 µM",86.6%
